ChEMBL document CHEMBL3396964, “SAH derived potent and selective EZH2 inhibitors” (Bioorg Med Chem Lett, 2015)
Active and inactive are the calls of the source. The calls are words filed in the database; no cut-off is given here.

What was measured:
[1] = biological target: Histone-lysine N-methyltransferase EZH2 (Homo sapiens, UniProt O75530+Q09028+Q15022+Q15910, Y641N); experiment: Inhibition of N-terminally FLAG-tagged EZH2 Y641N mutant in EZH2/SUZ12/EED/RbAp48 complex (unknown origin) expressed in baculovirus infected in SF9 cells assessed as inhibition of methylation of nucleosomes at H3K27 by scintillation counting in presence of [3H]SAM
Sequence of Histone-lysine N-methyltransferase EZH2 (Homo sapiens, UniProt O75530+Q09028+Q15022+Q15910, Y641N) (Q15910 whole entry Y641N, one chain of several): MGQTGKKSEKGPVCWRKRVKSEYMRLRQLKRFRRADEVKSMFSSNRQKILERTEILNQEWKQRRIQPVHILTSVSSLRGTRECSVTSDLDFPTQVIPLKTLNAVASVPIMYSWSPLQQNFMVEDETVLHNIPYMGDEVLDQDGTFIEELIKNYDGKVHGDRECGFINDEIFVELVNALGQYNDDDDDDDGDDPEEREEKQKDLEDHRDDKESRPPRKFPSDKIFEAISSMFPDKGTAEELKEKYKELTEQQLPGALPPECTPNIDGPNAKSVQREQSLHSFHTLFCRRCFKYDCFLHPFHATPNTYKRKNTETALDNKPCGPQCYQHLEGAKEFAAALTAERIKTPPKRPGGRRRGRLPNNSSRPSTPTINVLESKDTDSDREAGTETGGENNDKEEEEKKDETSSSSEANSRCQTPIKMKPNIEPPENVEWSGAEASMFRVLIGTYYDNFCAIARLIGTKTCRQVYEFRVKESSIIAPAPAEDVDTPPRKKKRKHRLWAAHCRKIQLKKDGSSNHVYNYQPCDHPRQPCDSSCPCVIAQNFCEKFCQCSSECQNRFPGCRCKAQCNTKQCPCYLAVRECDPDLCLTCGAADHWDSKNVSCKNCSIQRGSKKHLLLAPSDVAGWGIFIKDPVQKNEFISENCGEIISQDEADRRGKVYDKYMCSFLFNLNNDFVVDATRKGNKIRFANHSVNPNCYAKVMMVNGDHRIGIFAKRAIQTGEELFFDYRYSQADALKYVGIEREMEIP

[2] = biological target: T1, N-lysine methyltransferase SMYD2 (Homo sapiens, UniProt Q9NRG4); experiment: Inhibition of SMYD2 (unknown origin) by HMT assay
T1 sequence (Q9NRG4 whole entry): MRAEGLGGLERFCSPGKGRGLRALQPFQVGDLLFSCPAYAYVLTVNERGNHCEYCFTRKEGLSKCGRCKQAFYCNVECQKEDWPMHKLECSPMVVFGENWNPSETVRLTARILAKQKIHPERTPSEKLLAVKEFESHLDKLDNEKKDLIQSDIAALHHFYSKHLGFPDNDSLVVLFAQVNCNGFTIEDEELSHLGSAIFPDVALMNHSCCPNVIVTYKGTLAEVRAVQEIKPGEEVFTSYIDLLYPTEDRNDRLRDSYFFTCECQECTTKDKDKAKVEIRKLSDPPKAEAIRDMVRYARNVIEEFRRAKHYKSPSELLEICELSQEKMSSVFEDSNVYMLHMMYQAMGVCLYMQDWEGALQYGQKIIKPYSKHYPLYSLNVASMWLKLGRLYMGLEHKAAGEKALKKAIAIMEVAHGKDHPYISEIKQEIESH

[3] = biological target: Histone-lysine N-methyltransferase KMT5C (Homo sapiens, UniProt Q86Y97); experiment: Inhibition of SUV420H2 (unknown origin) by HMT assay
Sequence of Histone-lysine N-methyltransferase KMT5C (Q86Y97 whole entry): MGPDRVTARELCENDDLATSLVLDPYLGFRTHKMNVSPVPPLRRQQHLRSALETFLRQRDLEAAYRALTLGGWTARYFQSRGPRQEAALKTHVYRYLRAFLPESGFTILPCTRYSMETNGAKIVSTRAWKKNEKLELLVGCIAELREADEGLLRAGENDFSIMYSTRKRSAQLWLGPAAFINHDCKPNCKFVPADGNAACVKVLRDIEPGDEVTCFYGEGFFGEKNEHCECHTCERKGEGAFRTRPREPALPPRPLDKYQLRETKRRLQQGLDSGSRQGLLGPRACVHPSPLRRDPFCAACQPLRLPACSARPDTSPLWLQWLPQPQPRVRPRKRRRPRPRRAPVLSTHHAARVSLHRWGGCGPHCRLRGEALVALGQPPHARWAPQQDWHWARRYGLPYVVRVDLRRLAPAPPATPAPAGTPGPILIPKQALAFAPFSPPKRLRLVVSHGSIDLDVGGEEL

[4] = biological target: T2, Histone-lysine N-methyltransferase SETDB1 (Homo sapiens, UniProt Q15047); details: 10 uM
Description: Inhibition of SETDB1 (unknown origin) at 10 uM by HMT assay

[5] = biological target: T1, N-lysine methyltransferase SMYD2; experiment: Inhibition of SMYD2 (unknown origin) at 10 uM by HMT assay
[6] = biological target: T2, Histone-lysine N-methyltransferase SETDB1; experiment: Inhibition of SETDB1 (unknown origin) by HMT assay
[7] = biological target: T3, Histone-lysine N-methyltransferase EZH1 (Homo sapiens, UniProt Q92800); experiment: Inhibition of EZH1 (unknown origin) by HMT assay
T3 sequence (Q92800 whole entry): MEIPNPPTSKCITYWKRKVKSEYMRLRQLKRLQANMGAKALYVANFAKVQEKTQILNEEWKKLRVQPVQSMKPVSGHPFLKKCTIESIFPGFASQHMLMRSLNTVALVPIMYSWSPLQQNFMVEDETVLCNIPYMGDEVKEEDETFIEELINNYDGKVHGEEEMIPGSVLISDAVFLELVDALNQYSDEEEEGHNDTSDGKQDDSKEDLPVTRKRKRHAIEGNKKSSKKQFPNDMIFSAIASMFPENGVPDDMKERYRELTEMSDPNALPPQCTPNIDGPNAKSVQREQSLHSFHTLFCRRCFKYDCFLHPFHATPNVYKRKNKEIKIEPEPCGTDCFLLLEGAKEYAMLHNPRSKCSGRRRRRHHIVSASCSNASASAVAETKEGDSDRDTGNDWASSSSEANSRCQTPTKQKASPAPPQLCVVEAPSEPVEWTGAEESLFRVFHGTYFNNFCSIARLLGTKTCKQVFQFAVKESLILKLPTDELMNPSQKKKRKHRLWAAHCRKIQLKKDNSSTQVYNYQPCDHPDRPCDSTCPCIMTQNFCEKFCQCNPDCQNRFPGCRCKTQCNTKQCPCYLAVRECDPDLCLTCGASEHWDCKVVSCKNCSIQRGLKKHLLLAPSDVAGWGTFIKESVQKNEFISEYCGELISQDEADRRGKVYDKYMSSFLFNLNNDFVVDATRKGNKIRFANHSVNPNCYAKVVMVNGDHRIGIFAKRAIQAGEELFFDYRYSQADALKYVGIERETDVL

[8] = biological target: T4, Histone-lysine N-methyltransferase EHMT1 (Homo sapiens, UniProt Q9H9B1); experiment: Inhibition of EHMT1 (unknown origin) by HMT assay
T4 sequence (Q9H9B1 whole entry): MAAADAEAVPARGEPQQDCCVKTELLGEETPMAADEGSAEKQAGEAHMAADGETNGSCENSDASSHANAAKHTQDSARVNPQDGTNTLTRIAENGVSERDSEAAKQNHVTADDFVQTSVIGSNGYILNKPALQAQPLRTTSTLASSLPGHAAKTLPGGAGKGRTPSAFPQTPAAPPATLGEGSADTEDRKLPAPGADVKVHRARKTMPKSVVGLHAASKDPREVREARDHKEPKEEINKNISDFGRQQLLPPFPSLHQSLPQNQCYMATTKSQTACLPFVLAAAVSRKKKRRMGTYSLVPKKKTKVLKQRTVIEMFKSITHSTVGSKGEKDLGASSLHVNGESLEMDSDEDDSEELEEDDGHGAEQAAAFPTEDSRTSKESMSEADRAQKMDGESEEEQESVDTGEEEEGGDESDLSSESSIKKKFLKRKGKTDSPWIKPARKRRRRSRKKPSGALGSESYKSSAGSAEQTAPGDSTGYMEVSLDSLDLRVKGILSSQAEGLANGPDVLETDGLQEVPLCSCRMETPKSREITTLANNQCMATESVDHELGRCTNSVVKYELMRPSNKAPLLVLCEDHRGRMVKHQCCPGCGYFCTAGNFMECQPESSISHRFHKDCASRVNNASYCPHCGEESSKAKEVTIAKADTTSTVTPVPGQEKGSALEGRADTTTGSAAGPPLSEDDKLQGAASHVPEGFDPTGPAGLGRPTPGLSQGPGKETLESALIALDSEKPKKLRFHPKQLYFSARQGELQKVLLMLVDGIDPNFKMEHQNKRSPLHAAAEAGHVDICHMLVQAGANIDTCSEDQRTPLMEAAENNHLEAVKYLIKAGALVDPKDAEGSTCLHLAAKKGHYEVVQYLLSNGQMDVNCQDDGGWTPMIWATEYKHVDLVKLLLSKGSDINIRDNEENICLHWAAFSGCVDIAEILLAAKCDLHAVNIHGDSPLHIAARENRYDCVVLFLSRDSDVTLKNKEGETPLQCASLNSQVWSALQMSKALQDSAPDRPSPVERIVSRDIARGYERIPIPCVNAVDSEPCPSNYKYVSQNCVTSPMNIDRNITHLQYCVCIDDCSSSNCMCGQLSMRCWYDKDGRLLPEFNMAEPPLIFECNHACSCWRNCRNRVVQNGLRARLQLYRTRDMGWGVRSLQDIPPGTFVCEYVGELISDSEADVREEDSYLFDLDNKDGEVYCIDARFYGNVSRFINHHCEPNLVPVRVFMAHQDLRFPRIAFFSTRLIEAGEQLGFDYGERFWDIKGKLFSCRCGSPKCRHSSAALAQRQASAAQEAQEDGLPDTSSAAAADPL

[9] = biological target: Histone-lysine N-methyltransferase EZH2 (Homo sapiens, UniProt O75530+Q09028+Q15022+Q15910); experiment: Inhibition of N-terminally FLAG-tagged wild type EZH2 in EZH2/SUZ12/EED/RbAp48 complex (unknown origin) expressed in baculovirus infected in SF9 cells assessed as inhibition of methylation of nucleosomes at H3K27 by scintillation counting in presence of [3H]SAM
Sequence of Histone-lysine N-methyltransferase EZH2 (Homo sapiens, UniProt O75530+Q09028+Q15022+Q15910) (Q15910 whole entry, one chain of several): as the sequence (Q15910 whole entry Y641N, one chain of several) above, with N641Y counted along it

[10] = Permeability across MDCK2 cells; type: ADME, cell-based, Canis lupus familiaris, MDCK-II; details: dog, MDCK; read-out: permeability

## Nc1ncnc2c1ncn2[C@@H]1O[C@H](CSCC[C@H](N)C(=O)NCc2cc(-c3ccccc3)[nH]n2)[C@@H](O)[C@H]1O
[1]
  IC50: 70 nM
[2]
  IC50: > 100000 nM
[3]
  IC50: > 100000 nM
[4]
  inhibition: inactive
[5]
  inhibition: inactive
[6]
  IC50: > 100000 nM
[7]
  IC50: 2100 nM
[8]
  IC50: > 30000 nM
[9]
  IC50: 270 nM
[10]
  Papp: 1 ×10⁻⁶ cm/s
